From PMC11463018 (Journal of Enzyme Inhibition and Medicinal Chemistry, 2024)

Experiments:
[1] = molecular target: T1, HDAC6 (Homo sapiens, UniProt Q9UBN7); experiment: In vitro HDAC enzyme assay; format: biochemical
T1 sequence (Q9UBN7 1-1215): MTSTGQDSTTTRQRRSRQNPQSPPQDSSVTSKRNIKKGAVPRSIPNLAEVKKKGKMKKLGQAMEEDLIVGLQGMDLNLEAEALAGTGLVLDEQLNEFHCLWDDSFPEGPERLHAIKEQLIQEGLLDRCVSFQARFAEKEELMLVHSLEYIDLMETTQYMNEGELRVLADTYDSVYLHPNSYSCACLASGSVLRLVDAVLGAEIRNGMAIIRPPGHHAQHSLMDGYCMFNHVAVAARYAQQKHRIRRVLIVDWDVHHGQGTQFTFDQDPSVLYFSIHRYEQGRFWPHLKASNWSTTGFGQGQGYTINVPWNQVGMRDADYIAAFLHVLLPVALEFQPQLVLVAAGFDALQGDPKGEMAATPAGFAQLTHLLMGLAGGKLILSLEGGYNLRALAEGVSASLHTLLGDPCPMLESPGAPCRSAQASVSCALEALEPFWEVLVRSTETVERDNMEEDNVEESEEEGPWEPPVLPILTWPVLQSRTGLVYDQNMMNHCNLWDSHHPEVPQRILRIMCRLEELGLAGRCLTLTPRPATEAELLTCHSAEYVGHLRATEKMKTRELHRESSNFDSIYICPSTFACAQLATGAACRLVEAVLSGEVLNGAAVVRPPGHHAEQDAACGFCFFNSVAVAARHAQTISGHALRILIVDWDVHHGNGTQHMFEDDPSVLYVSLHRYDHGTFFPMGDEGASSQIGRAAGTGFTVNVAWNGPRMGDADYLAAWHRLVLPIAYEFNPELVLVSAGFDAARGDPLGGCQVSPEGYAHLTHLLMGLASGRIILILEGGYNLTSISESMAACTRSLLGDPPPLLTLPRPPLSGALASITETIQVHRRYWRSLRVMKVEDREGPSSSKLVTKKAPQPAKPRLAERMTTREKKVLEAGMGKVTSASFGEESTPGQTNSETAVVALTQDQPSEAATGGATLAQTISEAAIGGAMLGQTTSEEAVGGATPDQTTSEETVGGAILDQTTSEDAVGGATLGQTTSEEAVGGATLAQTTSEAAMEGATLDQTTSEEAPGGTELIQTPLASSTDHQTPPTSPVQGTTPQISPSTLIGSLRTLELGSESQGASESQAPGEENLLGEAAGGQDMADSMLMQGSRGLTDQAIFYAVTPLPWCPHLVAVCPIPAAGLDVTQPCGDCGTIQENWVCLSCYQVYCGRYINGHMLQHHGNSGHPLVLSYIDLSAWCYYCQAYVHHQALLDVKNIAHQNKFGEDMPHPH

[2] = test system: A549/ATCC; experiment: NCI-60 screening, A549/ATCC; format: cell-based; conditions: Homo sapiens, A549, read-out: GI50, A549/ATCC
[3] = molecular target: HDAC4 (Homo sapiens, UniProt P56524); experiment: In vitro HDAC enzyme assay; format: biochemical
Chain of HDAC4 (P56524 whole entry): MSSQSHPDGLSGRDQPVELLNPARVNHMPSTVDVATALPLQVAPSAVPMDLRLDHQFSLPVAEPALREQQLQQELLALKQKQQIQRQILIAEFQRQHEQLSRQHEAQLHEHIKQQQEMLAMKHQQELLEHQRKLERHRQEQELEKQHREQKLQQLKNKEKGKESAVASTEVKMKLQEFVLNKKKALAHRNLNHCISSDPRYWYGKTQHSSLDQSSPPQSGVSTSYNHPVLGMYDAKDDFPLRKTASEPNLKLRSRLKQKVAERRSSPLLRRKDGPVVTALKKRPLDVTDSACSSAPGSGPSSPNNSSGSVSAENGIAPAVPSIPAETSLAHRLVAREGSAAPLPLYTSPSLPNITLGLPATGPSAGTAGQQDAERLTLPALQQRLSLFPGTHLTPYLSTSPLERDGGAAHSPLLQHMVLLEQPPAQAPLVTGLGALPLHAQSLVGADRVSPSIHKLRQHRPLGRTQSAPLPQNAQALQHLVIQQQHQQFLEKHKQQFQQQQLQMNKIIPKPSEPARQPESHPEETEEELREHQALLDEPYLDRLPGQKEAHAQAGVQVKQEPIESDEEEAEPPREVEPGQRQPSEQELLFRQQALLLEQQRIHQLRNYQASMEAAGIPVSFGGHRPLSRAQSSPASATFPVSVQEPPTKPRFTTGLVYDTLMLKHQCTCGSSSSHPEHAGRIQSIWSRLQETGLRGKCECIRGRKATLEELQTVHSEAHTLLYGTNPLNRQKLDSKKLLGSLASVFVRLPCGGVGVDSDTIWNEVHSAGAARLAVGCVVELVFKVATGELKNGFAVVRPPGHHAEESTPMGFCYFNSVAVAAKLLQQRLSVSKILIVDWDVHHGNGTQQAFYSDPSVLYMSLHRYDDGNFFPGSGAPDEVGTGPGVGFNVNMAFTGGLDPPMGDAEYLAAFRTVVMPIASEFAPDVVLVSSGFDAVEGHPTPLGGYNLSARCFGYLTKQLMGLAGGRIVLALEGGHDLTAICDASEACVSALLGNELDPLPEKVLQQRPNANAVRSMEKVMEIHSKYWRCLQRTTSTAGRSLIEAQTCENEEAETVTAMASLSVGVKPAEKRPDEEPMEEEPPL

[4] = test system: 786-0; experiment: NCI-60 screening, 786-0; format: cell-based; conditions: Homo sapiens, 786-0, read-out: GI50, 786-0
[5] = test system: EKVX; experiment: NCI-60 screening, EKVX; format: cell-based; conditions: Homo sapiens, read-out: GI50, EKVX
[6] = test system: UACC-257; experiment: NCI-60 screening, UACC-257; format: cell-based; conditions: Homo sapiens, UACC-257, read-out: GI50, UACC-257

- IC50 [1]: 4.3 ± 0.1 nM
- IC50 [3]: > 50000 nM
- HDAC4 IC50 ([3]; duplicate, SD <15%): no activity
Structure (SMILES): O=C(NO)c1ccc(CNc2nc3cccc(-c4ccc5c(c4)OCO5)n3n2)cc1 [Compound 19, 4-(((5-(Benzo[d][1, 3]dioxol-5-yl)-[1,2, 4]triazolo[1,5-a]pyridin-2-yl)amino)methyl)-N-hydroxybenzamide]
- GI50 [2]: 890 nM
- GI50 [4]: 1000 nM
- GI50 [5]: 780 nM
- GI50 [6]: 360 nM
